Experiment: Residence time / pharmacokinetics of pilocarpine in the tear fluid
Parameters: species or system male New Zealand albino rabbits
Conditions: rabbit, in vivo
Description: Specifically, all of the ophthalmic preparations employed in the tests shown herein contain 2.0% by weight of pilocarpine nitrate (PiNO3), but the control preparation referred to in the following table as RS (i.e. reference solution) is an aqueous solution without any thickening agent, while the preparation according to the invention, referred to below as "TSP", is formulated according to Example 2.1.
All of the tests described herein have been carried out on male New Zealand albino rabbits weighing 3-3.5 kg, non anesthesized and kept in standard stabling conditions, at a temperature of 18-20° C. Both the miotic effect and the residence time of the drug in the tear fluid were measured after instillation (at the time=0) of 25 μl of the preparation under study in the lower conjunctival sac of one eye of the rabbits, while the other eye served as a control.
In order to verify whether the product according to the invention was able to prolong, in comparison with other vehicles, the residence of the drug in the precorneal area, the following test was carried out: after instillation of one of the preparations under test, samples of tear fluid (1 μl) were collected, at suitable time intervals, from the rim portion of the lower conjunctival sac, using a microcapillary and avoiding any contact with the corneal epithelium. The tear fluid samples, transferred into microprobes, were diluted with water and analysed by HPLC.
The results of said test are reported, in terms of pilocarpine concentration (μg/μl) detected in the tear fluid as a function of time, in Table 9 and in the corresponding FIG. 7.
The differences in the performance of the various vehicles are better evidenced by the following table, reporting the pharmacokinetic parameters of pilocarpine in the tear fluid, in the various formulations, as calculated from the tests described above. The said parameters are as follows:
Ke : apparent clearance velocity constant
AUCrel : AUC relative to the reference solution
t1/2 : half-life time of the drug in the tear fluid
MRT: mean residence time of the drug in the tear fluid.

For HPMC, the “AUC t3min→∞” value was 23.13 µg·min/µL, the “AUCrel, AUC relative to the reference solution” value was 6.27 and the “Ke, apparent clearance velocity constant” value was 0.098 min⁻¹. The “MRT, mean residence time” value was 8.83 min, the “increase in half-life with respect to the reference solution” value was “almost of double” and the “pilocarpine concentration in the tear fluid” value (“pilocarpine concentration” below) (3 min) was 3.894 µg/µL. The “pilocarpine concentration” value (5 min) was 1.9 µg/µL, the “pilocarpine concentration” value (10 min) was 1.03 µg/µL and the “pilocarpine concentration” value (15 min) was 0.583 µg/µL. The “pilocarpine concentration” value (30 min) was 0.074 µg/µL, the “pilocarpine concentration” value (45 min) was 0.025 µg/µL and the “pilocarpine concentration” value (60 min) was 0.016 µg/µL.

Reference: US6056950A, “Ophthalmic solutions viscosified with tamarind seed polysaccharide” (Farmigea S.p.A., priority 1996, dated 2000)
